Results published in ChEMBL document CHEMBL5678818, “Discovery of potent SOS1 inhibitors that block RAS activation via disruption of the RAS-SOS1 interaction” (Proc Natl Acad Sci U S A, 2019).

Tests used:
[1] = molecular target: SRSF protein kinase 3 (Homo sapiens) (UniProt Q9UPE1); assay: Inhibition of SRPK3 (unknown origin) assessed as residual activity at 1000 nM by KINOMEscan analysis relative to control
[2] = molecular target: Cyclin-dependent kinase 3 (Homo sapiens) (UniProt Q00526); assay: Inhibition of CDK3 (unknown origin) assessed as residual activity at 1000 nM by KINOMEscan analysis relative to control
Chain of Cyclin-dependent kinase 3 (Homo sapiens) (Q00526 whole entry, looked up): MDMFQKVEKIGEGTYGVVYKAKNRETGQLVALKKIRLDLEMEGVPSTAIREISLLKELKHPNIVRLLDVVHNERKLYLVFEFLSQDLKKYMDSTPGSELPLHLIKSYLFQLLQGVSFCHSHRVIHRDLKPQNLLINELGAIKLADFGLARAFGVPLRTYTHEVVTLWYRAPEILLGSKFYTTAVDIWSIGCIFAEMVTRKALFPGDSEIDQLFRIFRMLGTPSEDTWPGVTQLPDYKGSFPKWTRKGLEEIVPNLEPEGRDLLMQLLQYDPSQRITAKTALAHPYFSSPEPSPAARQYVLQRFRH

[3] = molecular target: Cyclin-dependent kinase 7 (Homo sapiens) (UniProt P50613); assay: Inhibition of CDK7 (unknown origin) assessed as residual activity at 1000 nM by KINOMEscan analysis relative to control
Chain of Cyclin-dependent kinase 7 (Homo sapiens) (P50613 whole entry): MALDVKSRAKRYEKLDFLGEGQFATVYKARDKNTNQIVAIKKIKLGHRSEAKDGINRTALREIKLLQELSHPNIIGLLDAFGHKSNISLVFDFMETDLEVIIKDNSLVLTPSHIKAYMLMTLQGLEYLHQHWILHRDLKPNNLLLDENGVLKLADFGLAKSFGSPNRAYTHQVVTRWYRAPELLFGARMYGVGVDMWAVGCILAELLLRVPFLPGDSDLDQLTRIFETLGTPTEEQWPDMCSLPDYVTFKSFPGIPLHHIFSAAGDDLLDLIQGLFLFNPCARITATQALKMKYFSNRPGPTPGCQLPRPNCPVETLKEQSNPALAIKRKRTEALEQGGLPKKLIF

[4] = molecular target: T1, cGMP-dependent protein kinase 1 (Homo sapiens) (UniProt Q13976); assay: Inhibition of PRKG1 (unknown origin) assessed as residual activity at 1000 nM by KINOMEscan analysis relative to control
T1 sequence (whole entry): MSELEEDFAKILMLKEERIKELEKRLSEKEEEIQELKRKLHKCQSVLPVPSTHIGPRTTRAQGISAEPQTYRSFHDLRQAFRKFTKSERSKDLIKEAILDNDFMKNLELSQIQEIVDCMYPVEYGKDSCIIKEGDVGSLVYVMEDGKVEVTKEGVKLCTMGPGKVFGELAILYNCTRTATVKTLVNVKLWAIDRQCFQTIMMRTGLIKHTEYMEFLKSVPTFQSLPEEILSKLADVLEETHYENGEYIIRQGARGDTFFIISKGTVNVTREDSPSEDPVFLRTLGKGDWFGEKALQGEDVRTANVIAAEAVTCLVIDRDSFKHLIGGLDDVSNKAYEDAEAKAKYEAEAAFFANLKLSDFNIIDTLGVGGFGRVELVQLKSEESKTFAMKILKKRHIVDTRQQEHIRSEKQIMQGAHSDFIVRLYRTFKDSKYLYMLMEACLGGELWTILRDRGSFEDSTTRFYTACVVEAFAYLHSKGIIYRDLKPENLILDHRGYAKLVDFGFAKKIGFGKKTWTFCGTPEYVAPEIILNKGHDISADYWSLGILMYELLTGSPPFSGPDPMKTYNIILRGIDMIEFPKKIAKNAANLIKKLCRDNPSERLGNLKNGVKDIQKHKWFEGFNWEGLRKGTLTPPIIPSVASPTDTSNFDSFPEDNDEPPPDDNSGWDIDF

[5] = molecular target: Serine/threonine-protein kinase 38-like (Homo sapiens) (UniProt Q9Y2H1); assay: Inhibition of NDR2 (unknown origin) assessed as residual activity at 1000 nM by KINOMEscan analysis relative to control
Chain of Serine/threonine-protein kinase 38-like (Homo sapiens) (Q9Y2H1 2-464 limits assumed): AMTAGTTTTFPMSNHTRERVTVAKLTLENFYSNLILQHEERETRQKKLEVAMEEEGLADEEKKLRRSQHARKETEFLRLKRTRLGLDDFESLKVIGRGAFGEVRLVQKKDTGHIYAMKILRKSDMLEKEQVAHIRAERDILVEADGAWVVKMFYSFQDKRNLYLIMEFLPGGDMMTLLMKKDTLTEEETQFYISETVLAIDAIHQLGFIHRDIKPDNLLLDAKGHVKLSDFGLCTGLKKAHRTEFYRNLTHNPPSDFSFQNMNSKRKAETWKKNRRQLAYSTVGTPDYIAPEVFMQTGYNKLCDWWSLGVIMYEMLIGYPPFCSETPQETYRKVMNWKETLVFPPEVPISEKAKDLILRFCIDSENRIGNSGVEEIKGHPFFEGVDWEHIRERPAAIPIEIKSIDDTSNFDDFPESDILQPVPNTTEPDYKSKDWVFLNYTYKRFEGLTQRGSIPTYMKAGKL

[6] = molecular target: T2, Mitogen-activated protein kinase kinase kinase 5 (Homo sapiens) (UniProt Q99683); assay: Inhibition of ASK1 (unknown origin) assessed as residual activity at 1000 nM by KINOMEscan analysis relative to control
T2 sequence (whole entry): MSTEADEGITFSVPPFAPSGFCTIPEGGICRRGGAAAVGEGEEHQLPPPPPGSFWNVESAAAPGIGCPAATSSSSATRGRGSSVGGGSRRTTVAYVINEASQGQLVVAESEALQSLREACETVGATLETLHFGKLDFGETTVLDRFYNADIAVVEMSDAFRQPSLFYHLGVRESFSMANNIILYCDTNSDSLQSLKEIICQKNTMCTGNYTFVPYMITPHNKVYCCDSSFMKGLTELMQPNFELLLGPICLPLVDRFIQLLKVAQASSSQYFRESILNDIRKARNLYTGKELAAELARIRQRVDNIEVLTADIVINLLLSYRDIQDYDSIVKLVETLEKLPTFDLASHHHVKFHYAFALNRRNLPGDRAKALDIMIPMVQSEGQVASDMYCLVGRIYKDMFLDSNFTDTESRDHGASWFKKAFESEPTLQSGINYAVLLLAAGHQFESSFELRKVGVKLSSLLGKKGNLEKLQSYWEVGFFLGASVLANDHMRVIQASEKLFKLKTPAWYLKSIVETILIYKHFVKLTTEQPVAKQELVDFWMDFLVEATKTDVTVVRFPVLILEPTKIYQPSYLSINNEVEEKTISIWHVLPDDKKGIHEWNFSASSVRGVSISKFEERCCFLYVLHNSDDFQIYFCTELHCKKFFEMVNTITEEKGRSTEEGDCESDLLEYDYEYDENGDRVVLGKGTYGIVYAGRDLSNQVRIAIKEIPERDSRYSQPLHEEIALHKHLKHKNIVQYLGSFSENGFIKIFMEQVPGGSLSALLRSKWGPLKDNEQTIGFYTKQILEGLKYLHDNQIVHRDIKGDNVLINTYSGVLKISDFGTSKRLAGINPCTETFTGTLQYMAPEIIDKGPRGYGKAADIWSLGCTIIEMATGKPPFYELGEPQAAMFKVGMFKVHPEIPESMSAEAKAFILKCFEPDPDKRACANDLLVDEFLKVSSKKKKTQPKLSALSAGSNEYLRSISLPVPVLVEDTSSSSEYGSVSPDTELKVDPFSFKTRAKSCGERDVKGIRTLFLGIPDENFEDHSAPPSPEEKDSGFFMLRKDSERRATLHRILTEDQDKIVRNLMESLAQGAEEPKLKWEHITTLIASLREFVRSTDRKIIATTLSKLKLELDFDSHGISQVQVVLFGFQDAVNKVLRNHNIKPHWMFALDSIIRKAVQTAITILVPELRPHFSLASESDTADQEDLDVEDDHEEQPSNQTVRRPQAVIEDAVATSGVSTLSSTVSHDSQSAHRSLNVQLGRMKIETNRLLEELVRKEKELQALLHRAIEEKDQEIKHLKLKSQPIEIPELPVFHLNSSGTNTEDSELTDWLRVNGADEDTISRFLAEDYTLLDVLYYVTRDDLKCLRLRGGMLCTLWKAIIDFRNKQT

Chain of SRSF protein kinase 3 (Homo sapiens) (Q9UPE1 whole entry, looked up): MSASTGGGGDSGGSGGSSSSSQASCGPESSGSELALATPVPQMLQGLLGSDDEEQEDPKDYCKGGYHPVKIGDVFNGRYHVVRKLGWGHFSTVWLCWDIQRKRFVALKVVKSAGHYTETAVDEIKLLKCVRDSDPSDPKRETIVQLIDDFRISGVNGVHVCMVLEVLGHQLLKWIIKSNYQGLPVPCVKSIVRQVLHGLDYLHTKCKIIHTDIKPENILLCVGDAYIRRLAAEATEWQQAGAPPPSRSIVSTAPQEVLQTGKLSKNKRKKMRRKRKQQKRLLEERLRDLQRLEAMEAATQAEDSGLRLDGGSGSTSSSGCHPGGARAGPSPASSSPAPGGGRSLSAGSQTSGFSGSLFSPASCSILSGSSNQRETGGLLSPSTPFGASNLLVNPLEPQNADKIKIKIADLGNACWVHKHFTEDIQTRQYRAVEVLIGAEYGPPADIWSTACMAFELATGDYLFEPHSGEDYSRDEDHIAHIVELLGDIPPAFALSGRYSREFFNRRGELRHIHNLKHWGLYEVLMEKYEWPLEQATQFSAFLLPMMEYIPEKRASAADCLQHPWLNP

Compound	Activity [1] [%]	Activity [2] [%]	Activity [3] [%]	Activity [4] [%]	Activity [5] [%]	Activity [6] [%]
COc1cc2ncnc(N[C@H](C)c3cccc4ccccc34)c2cc1OC	100	97	87	100	86	76
COc1cc2nc(C)nc(N[C@H](C)c3cccc(-c4cn[nH]c4)c3)c2cc1OC	93	90	92	70	87	100
